Here are results for three compounds from the NIST ThermoML archive (doi:10.1016/j.tca.2016.06.023).

Numbers after ± are expanded uncertainties.

Data set [1] in a line: xn = mol fraction of the nth substance listed. As to conditions: 81.5 kPa, Liquid, Vibrating tube method.
A short description of data set [2]: refractive index (Na D-line) (dimensionless); xn = mol fraction of the nth substance listed. The settings on record: 81.5 kPa, Liquid, Standard Abbe refractometry.

Turning to `Clc1ccccc1` [chlorobenzene] + Brc1ccccc1, the mass density – broadly, mass per unit of volume – in data set [1] (293.15 K, x1 = 1) came out at 1106.49 ± 10 kg/m3; in data set [1] (303.15 K, x1 = 1) it was 1095.71 ± 10 kg/m3; in data set [1] (313.15 K, x1 = 1) it was 1084.86 ± 10 kg/m3; in data set [1] (323.15 K, x1 = 1), 1073.96 ± 10 kg/m3; in data set [1] (333.15 K, x1 = 1) it was 1063.01 ± 10 kg/m3. Further, the refractive index (commonly the speed of light in vacuum divided by its phase velocity in the sample) in data set [2] (293.15 K, x1 = 1) turned out to be 1.52455 ± 0.01; in data set [2] (303.15 K, x1 = 1) it was 1.51902 ± 0.01; in data set [2] (313.15 K, x1 = 1), 1.51346 ± 0.01; in data set [2] (323.15 K, x1 = 1), 1.50781 ± 0.01; in data set [2] (333.15 K, x1 = 1), 1.50223 ± 0.01.
Turning to `O=[N+]([O-])c1ccccc1` [nitrobenzene] + Brc1ccccc1, the mass density came out at 1203.05 ± 10 kg/m3 in data set [1] (293.15 K, x2 = 0); 1193.15 ± 10 kg/m3 in data set [1] (303.15 K, x2 = 0); 1183.21 ± 10 kg/m3 in data set [1] (313.15 K, x2 = 0); 1173.27 ± 10 kg/m3 in data set [1] (323.15 K, x2 = 0); 1163.32 ± 10 kg/m3 in data set [1] (333.15 K, x2 = 0). Besides, the refractive index in data set [2] (293.15 K, x2 = 0) turned out to be 1.55241 ± 0.01; in data set [2] (303.15 K, x2 = 0), 1.54763 ± 0.01; in data set [2] (313.15 K, x2 = 0) it was 1.54288 ± 0.01; in data set [2] (323.15 K, x2 = 0), 1.53795 ± 0.01; in data set [2] (333.15 K, x2 = 0), 1.53289 ± 0.01.
Consider `O=[N+]([O-])c1ccccc1` [nitrobenzene] + Clc1ccccc1, for which the mass density in data set [1] (293.15 K, x2 = 0) is recorded as 1203.05 ± 10 kg/m3; in data set [1] (303.15 K, x2 = 0) it was 1193.15 ± 10 kg/m3; in data set [1] (313.15 K, x2 = 0), 1183.21 ± 10 kg/m3; in data set [1] (323.15 K, x2 = 0), 1173.27 ± 10 kg/m3; in data set [1] (333.15 K, x2 = 0) it was 1163.32 ± 10 kg/m3. Moreover, the refractive index is recorded as 1.55241 ± 0.01 in data set [2] (293.15 K, x2 = 0); 1.54763 ± 0.01 in data set [2] (303.15 K, x2 = 0); 1.54288 ± 0.01 in data set [2] (313.15 K, x2 = 0); 1.53795 ± 0.01 in data set [2] (323.15 K, x2 = 0); 1.53289 ± 0.01 in data set [2] (333.15 K, x2 = 0).
